We go through five compounds from PMC5128750, “Structure–Activity Relationship Studies Using Natural and Synthetic Okadaic Acid/Dinophysistoxin Toxins” (Marine Drugs, 2016).

One may read the EC50 as the concentration at which the effect is half-maximal. For orientation: IC50 means the concentration that inhibits the measured activity by half. Low readings indicate higher potency, high ones lower potency.

Each structure is given as a SMILES string. Values joined by “and” are separate entries in the source; they are usually repeats but may differ in a detail not shown here. Equal entries are not always repeated. Where two headings read alike, the source gives them in different places.

Series [1] concerns Jurkat T lymphocyte cells. Description: cells. It counts as cell-based, human.
The target in series [2] is T1, PP2A (Homo sapiens, UniProt P67775).
T1 construct: purified PP2A (EMD Millipore Corporation, Darmstadt, Germany, cat. #14-111; human red blood cells); purchased EMD Millipore Corporation 14-111; host or cells: human red blood cells (tissue-purified)
Put plainly: biochemical. Type of series: biochemical.

A further series has as its system PP1. It counts as biochemical, rabbit.
Series [3] deals with T2, PP5 (Homo sapiens, UniProt P53041).
T2 sequence (P53041 1-499): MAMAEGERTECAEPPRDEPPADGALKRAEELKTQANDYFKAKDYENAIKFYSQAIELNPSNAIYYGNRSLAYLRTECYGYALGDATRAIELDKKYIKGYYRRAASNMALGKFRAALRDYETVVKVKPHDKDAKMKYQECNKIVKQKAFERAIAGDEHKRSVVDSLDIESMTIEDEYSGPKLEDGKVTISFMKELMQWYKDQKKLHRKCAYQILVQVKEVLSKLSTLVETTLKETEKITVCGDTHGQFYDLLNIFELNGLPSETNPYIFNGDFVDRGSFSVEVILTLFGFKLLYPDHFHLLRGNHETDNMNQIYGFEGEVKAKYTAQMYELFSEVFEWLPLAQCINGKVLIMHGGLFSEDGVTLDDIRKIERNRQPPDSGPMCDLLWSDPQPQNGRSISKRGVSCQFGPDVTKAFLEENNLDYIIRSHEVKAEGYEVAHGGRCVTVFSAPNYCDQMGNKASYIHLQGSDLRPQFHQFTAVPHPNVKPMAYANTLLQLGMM
Description: PP5 inhibition, fluorimetric DiFMUP assay. It counts as biochemical. Further details: purchased EMD Millipore Corporation 14-778; host or cells: E. coli. The following applies: for IC50: PP5, DiFMUP 50 μM; for Rel. Potency / TEF: PP5, relative to OA. The method, then:
Figure 3 Effect of various DSP toxins on protein phosphatase activity. The activities of protein phosphatases (A) PP2a, (B) PP1, and (C) PP5 were assessed in the presence of various concentrations of natural OA, natural DTX1, natural DTX2, synthetic DTX2, or synthetic 2-epi-DTX2. All data (mean ± SE; n = 3 or 4) were normalized to the control. […], variable slope, non-linear dose-response analysis was performed and IC50 and 95% confidence interval values were calculated (Table 2).
Preliminary studies were conducted by Millipore (EMD Millipore Corporation, Darmstadt, Germany) using their PhosphataseProfiler that assessed the activities of 21 human and yeast phosphatases in the presence of DTX2. Phosphatase sensitivities to DTX2 were more extensively characterized using 96-well fluorescence-based assays in the presence of various natural and synthetic OA/DTXs. Briefly, the assay tests the ability of toxins to inhibit the activity of purified PP2A (EMD Millipore Corporation, Darmstadt, Germany, cat. #14-111; human red blood cells), purified PP1 (EMD Millipore Corporation, Darmstadt, Germany, cat. #14-110; rabbit skeletal muscle), or purified PP5 (EMD Millipore Corporation, Darmstadt, Germany, cat. #14-778; recombinant enzyme expressed in E. coli cells) against the fluorimetric substrate, 6,8-difluro-4-methyl umbelliferyl phosphate (DiFMUP; 50 μM final) (Invitrogen ThermoFisher Scientific, Waltham, MA, USA, cat. #D6567). DiFMUP solutions were preincubated with toxins or vehicle controls (all containing 1% DMSO final) for 10 min prior to addition of one of the PP enzymes (0.4, 0.4, and 0.02 units/well for PP2a, PP1, and PP5). PP2a assays were performed in Tris-HCl (40 mM, pH 8.4), MgCl2 (34 mM), EDTA (4 mM), and DTT (4 mM), PP1 assays were performed in Tris-HCl (100 mM, pH 7.5), MnCl2 (0.5 mM), EDTA (0.2 mM), DTT (4 mM) and BSA (0.4 mg/mL), and PP5 assays were performed in HEPES (57 mM, pH 7.2), NaCl (150 mM), EDTA (1 mM), MnCl2 (1 mM), DTT (0.167 mM), glycerol (0.83%), BSA (0.167 mg/mL), Brij-35 (0.002%) (EMD Millipore Corporation, Darmstadt, Germany, pers. comm.). All reactions (50 μL) were performed in black, 96-well, half area plates (Corning Incorporated, Corning, NY, USA) for 2 h at 35 °C with 5 s orbital shaking (ca. 600 rpm) just prior to each reading (every 2 min). PP activity was determined by measuring the fluorescence (excitation 360 nm, emission 470 nm) of each well using a fluorometric plate reader (Fluostar, BMG Lab Technologies, Ortenberg, Germany). All data (mean ± SE, n ≥ 3) are presented as normalized percentages relative to vehicle controls (100%). IC50 determinations were calculated using four-parameter, variable slope, non-linear regression analysis (GraphPad Prism, ver. 5.0c, San Diego, CA, USA).

A further series deals with mice. The note with it: relative to OA, cited from earlier work; for TEF (European Food Safety Authority): based on LD50 values from exposed mice.
For series [4], the system named is PP2a. The following applies: relative to OA, using data from Aune et al. and Takai et al.; cited from earlier work.
Another series addresses T3, PP1α (Homo sapiens, UniProt P62136).
T3 construct: purchased EMD Millipore Corporation (PhosphataseProfiler service)
It counts as biochemical. The note with it: 200 nM, n = 2.

Series [5] addresses T1, PP2A. Type of series: biochemical. The following applies: 200 nM, n = 2.
Series [6] relates to CD45, DUSP22, HePTP, LMPTP-A, LMPTP-B, MKP5, PTPMEG1, PTP-MEG2, PTP-1B, PTPN22, PTPβ, RPTPμ, SHP-1, SHP-2, TCPTP, TMDP, VHR, YopH. Type of series: biochemical, human and yeast. The note with it: 200 nM, n = 2.
Series [7] has as its target T2, PP5. Type of series: biochemical. Details: purchased EMD Millipore Corporation (PhosphataseProfiler service). The note with it: 200 nM, n = 2.

T1 sequence (P30153 2-589): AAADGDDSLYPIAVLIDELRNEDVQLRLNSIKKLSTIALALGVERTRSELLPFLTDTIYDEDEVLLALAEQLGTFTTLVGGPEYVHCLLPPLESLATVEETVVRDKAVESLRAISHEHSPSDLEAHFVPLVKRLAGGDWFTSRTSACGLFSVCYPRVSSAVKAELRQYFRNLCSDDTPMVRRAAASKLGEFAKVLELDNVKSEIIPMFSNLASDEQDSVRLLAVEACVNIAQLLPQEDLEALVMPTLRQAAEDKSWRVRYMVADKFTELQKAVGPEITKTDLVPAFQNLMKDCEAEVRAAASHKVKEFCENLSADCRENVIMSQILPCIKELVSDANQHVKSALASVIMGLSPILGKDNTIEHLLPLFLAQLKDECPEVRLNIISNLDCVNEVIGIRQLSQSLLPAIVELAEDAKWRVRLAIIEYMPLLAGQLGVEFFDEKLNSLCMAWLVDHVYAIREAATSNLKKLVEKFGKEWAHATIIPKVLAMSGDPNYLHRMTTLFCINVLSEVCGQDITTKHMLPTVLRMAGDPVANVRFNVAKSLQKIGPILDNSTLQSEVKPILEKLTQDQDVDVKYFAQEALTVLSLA
T1 sequence (P67775 whole entry): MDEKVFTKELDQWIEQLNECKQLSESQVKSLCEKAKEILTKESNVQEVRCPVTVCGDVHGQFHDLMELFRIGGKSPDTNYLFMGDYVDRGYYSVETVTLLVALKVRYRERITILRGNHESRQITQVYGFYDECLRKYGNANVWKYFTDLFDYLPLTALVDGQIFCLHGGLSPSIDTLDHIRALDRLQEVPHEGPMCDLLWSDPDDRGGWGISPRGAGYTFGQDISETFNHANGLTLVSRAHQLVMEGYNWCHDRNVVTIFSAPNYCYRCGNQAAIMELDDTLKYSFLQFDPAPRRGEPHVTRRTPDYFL
T3 sequence (P62136 whole entry): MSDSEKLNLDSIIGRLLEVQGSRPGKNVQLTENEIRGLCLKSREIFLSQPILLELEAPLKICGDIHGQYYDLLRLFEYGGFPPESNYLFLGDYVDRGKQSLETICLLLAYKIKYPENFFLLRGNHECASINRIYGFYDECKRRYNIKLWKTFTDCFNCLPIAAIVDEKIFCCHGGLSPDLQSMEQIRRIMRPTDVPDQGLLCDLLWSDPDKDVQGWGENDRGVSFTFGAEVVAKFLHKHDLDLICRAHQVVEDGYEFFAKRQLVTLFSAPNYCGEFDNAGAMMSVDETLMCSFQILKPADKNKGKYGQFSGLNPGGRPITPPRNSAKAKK

As for `C=C1C(O)C2OC3(CCC(C=CC(C)C4CC(C)=CC5(OC(CC(C)(O)C(=O)O)CCC5O)O4)O3)CCC2OC1C(O)CC(C)C1CCCC2(OCCCC2C)O1` (stereo not drawn) [syn. DTX2, Dinophysistoxin-2], in series [1], the EC50 was 21.8 nM and 18.2 nM and 15.4 nM; the “Rel. Potency (as per 48 h Data) / TEF” value is 1.1 and 1.07. Besides, on PP2A [2], 1.35 nM corresponded to half-maximal inhibition (IC50) and the “Rel. Potency / TEF” value is on record as 0.345. In the series with PP1, the half-maximal inhibitory concentration (IC50) amounted to 82.6 nM and the “Rel. Potency / TEF” value was 0.305. For the same compound, at PP5 [3], the half-inhibitory concentration (IC50) is 4 nM and 3.95 nM; the “Rel. Potency / TEF” value worked out at 0.582.

Take `C=C1[C@@H](O)[C@@H]2O[C@]3(CC[C@H](/C=C/[C@@H](C)[C@@H]4CC(C)=C[C@@]5(O[C@H](C[C@@](C)(O)C(=O)O)CC[C@H]5O)O4)O3)CC[C@H]2O[C@@H]1[C@@H](O)C[C@H](C)[C@H]1O[C@@]2(CCCCO2)CC[C@H]1C` [nat. OA, Okadaic Acid]: the “Rel. Potency (as per 48 h Data) / TEF” value in series [1] is reported as 1.000. In addition, the EC50 amounted to 32.8 nM in [1] (Homo sapiens, Jurkat, 24 h); 19.5 nM in series [1] (Homo sapiens, Jurkat, 48 h); 9.16 nM in [1] (Homo sapiens, Jurkat, 72 h). Moreover, the “Rel. Potency / TEF” value at PP2A [2], with PP1 and on PP5 [3] was 1.000 each time. Moreover, the IC50 is 0.47 nM and 0.466 nM against PP2A [2] (IC50); 25.2 nM with PP1; 2.3 nM against PP5 [3]. In addition, in the series on mice, the “TEF (European Food Safety Authority)” value was 1.

With `C=C1C(O)C2OC3(CCC(C=CC(C)C4CC(C)=CC5(OC(CC(C)(O)C(=O)O)CCC5O)O4)O3)CCC2OC1C(O)CC(C)C1OC2(CCC1C)OCCCC2C` (centres unmarked) [nat. DTX1, Dinophysistoxin-1], the “Rel. Potency (as per 48 h Data) / TEF” value in [1] is 0.9 and 0.87. Besides, the EC50 in series [1] (Homo sapiens, Jurkat, 24 h) turned out to be 24.6 nM; in [1] (Homo sapiens, Jurkat, 48 h), 22.2 nM; in series [1] (Homo sapiens, Jurkat, 72 h), 11.4 nM. The concentration for half-maximal inhibition (IC50) against PP2A [2] is 0.31 nM and 0.306 nM; in the series with PP1 it was 34.8 nM; against PP5 [3] it was 1.3 nM. Further, the “Rel. Potency / TEF” value on PP2A [2] is 1.5 and 1.523; in the series on PP1, 0.72 and 0.724; on PP5 [3], 1.8 and 1.769. Further, in the series on PP2a [4], the “TEF by Huhn et al.” value is recorded as 1.58. In addition, the “TEF (European Food Safety Authority)” value in the series with mice was 1.

As to `C=C1C(O)C2OC3(CCC(C=CC(C)C4CC(C)=CC5(OC(CC(C)(O)C(=O)O)CCC5O)O4)O3)CCC2OC1C(O)CC(C)C1CCCC2(OCCCC2C)O1` (stereo not drawn) [syn. 2-epi-DTX2, 2-epi-dinophysistoxin-2], in [1], the EC50 is 4750 nM and 4260 nM and 3740 nM; the “Rel. Potency (as per 48 h Data) / TEF” value came to 0.004. In addition, on PP2A [2], half-maximal inhibition (IC50) was put at 137 nM and the “Rel. Potency / TEF” value is on record as 0.003. Also, in the series on PP1, inhibition was half-maximal at 3110 nM (IC50) and the “Rel. Potency / TEF” value is on record as 0.008. Moreover, on PP5 [3], the IC50 was 541 nM and the “Rel. Potency / TEF” value is 0.004.

In the case of `C=C1C(O)C2OC3(CCC(C=CC(C)C4CC(C)=CC5(OC(CC(C)(O)C(=O)O)CCC5O)O4)O3)CCC2OC1C(O)CC(C)C1CCCC2(OCCCC2C)O1` (centres unmarked) [nat. DTX2, Dinophysistoxin-2], the “Rel. Potency (as per 48 h Data) / TEF” value in [1] was 1.6 and 1.58. In addition, the half-maximal inhibitory concentration (IC50) was 0.99 nM and 0.987 nM against PP2A [2]; 76.4 nM in the series on PP1; 5.2 nM and 5.25 nM on PP5 [3]. Also, the “Rel. Potency / TEF” value was found to be 0.472 at PP2A [2], 0.330 in the series with PP1 and 0.438 at PP5 [3]. For the same compound, the “Inhibition of phosphatase activity” value is “inhibited” on PP1α; “inhibited” on PP2A [5]; “only PP1α, PP2a, and PP5 were inhibited” in [6]; “inhibited” on PP5 [7]. Besides, the “TEF by Huhn et al.” value with PP2a [4] is given as 0.48. In addition, the “TEF (European Food Safety Authority)” value in the series with mice is listed as 0.6. Also, the “TEF proposed by Aune et al.” value in the series with mice is given as 0.6.
